Data on 2 substances can be found in US20110110920A1, “METHOD OF TREATING PERIPHERAL ARTERIAL DISEASE” (priority 2008, published 2011).

Assay [1] has as its system eNOS. The assay is described as follows: eNOS expression and S1177 phosphorylation in HCAE cells, western blot. Format: cell-based, human. The note with it: 24 h.
Procedure: (§1) Human coronary artery endothelial cells (HCAE cells, Lonza, Walkersville, Md.) were cultured in 5% CO2 at 37° C. in endothelial cell growth medium (EGM) supplemented with 2% fetal bovine serum and Single Quot supplements (Clonetics, San Diego, Calif.; containing epidermal growth factor, hydrocortisone, vascular endothelial growth factor, fibroblast growth factor, insulin growth factor, ascorbic acid, heparin, gentamycin, and amphotericin B). Cells were used between passages 4 and 6 for these studies. HCAE cells were plated at a density of 50,000 cells per well in 12-well plates and were grown for 3 days to reach confluency. […] Cells were then incubated in normoxic or 1% hypoxic conditions for the indicated times.
(§2) The cell lysates were subjected to SDS-PAGE in a 10% polyacrylamide gel and transferred to a nitrocellulose membrane (0.2-μm, Invitrogen). After blocking with 5% milk, the membrane was incubated overnight at 4° C. with primary antibodies against phospho-eNOS (Ser 1177) and eNOS (Cell Signaling Technology, Beverly, Mass.), human type-1 arginase (clone 9C5) (Cell Sciences, Canton, Mass.), or GAPDH (Santa Cruz Biotechnology, Santa Cruz, Calif.). HRP-conjugated anti-mouse or anti-rabbit antibodies (Cell Signaling Technology) were used as secondary antibodies (HRP, horseradish peroxidase). […]
A further assay deals with eNOS mRNA. The assay is described as follows: eNOS mRNA in HCAE cells, RT-PCR and SYBR Green real-time PCR. It is filed as cell-based, human.
In another assay the test system is arginase 1. The assay is described as follows: Arginase 1 expression in HCAE cells with or without TNFα, western blot. It is filed as cell-based, human. The note with it: TNFα treatment.
The subject of assay [2] is Human coronary artery endothelial (HCAE) cells. Nature of the assay: Transmembrane migration of endothelial cells toward VEGF (FluoroBlok inserts). It is filed as cell-based. The note with it: hypoxic, VEGF 10 ng/ml as chemoattractant, 22 h.
Procedure: Transmembrane cell migration assays were performed using BD FluoroBlok inserts (BD Bioscience, Bedford, Mass.) as described by the vendor. […] (V) or medium alone (C) was added to the lower chamber of the insert plate as a chemoattractant. Endothelial migration was performed in normoxic or 1% hypoxic conditions. After a 22-hour incubation, cells were labeled post-migration with Calcein AM and measured by detecting the fluorescence of the cells that migrated to the underside of the insert membrane.
Another assay has as its system VEGF mRNA. The assay is described as follows: VEGF mRNA expression in HCMVE cells, real-time PCR. The note with it: VEGF 10 ng/ml, 24 h. Format: cell-based, human. The source says: Data from one experiment performed in triplicate are shown in FIG. 11 as mean±SD. *p<0.01 compared to control (C) cells in normoxia. ^#p<0.01 compared to control (C) cells in hypoxia.
Background: Real-time PCR tracks product formation cycle by cycle.

Assay [3] relates to Human coronary artery endothelial (HCAE) cells. The assay is described as follows: Endothelial cell invasion through Matrigel toward VEGF. Particulars: normoxic or hypoxic, VEGF 10 ng/ml, no TP508. It is filed as cell-based.
Procedure: Endothelial cell invasion assays were performed using BD BioCoat™ Angiogenesis System (BD Bioscience, Bedford, Mass.) which utilizes FluoroBlok inserts coated with BD Matrigel Matrix (BD Bioscience, Bedford, Mass.). […] Endothelial cell invasion was performed in normoxic or hypoxic (1% O2) conditions. After 22 hours of incubation, cells were labeled post-invasion with Calcein AM and measured by detecting the fluorescence of the cells that migrated to the underside of insert membrane.
Assay [4] has as its system Human Lung Microvascular Endothelial Cells (HLME). Nature of the assay: Survival of serum-deprived HLME cells. It is filed as cell-based. The note with it: serum-deprivation.
Assay [5] deals with eNOS. Nature of the assay: VEGF-induced activation of eNOS in HCAE cells, western blot. It is filed as cell-based, human. The note with it: normoxic HCAE cells, VEGF 50 ng/ml, 1 minute. The text has this: The membrane was re-probed with anti-GAPDH (glyceraldehyde-3-phosphate dehydrogenase) antibody to show equal protein loading.
A general note: In western blotting, separated proteins are transferred to a membrane and probed.

Procedure for arginase 1: as §1, §2
Procedure for eNOS mRNA: Human coronary artery endothelial cells (HCAE cells, Lonza, Walkersville, Md.) were cultured in 5% CO2 at 37° C. in endothelial cell growth medium (EGM) supplemented with 2% fetal bovine serum and Single Quot supplements (Clonetics, San Diego, Calif.; containing epidermal growth factor, hydrocortisone, vascular endothelial growth factor, fibroblast growth factor, insulin growth factor, ascorbic acid, heparin, gentamycin, and amphotericin B). Cells were used between passages 4 and 6 for these studies. HCAE cells were plated at a density of 50,000 cells per well in 12-well plates and were grown for 3 days to reach confluency. […] Cells were then incubated in normoxic or 1% hypoxic conditions for the indicated times. […] For RNA extraction, HCAE cells were cultured in 6-well plates.
Total RNA was isolated using an Ambion isolation kit as described by the manufacturer.
RT-PCR for eNOS was performed by Ready-to-Go RT-PCR Beads (Amersham Biosciences) using a two-step protocol. […]
Samples were coded to provide blinded analysis. […] Quantitative PCR amplifications were done using 2 μl of cDNA in a total volume of 25 μl using SYBR green probes in the SYBR Green PCR Master Mix (ABI). […] The reverse-transcribed cDNA sample cycle threshold values were determined from triplicate samples and normalized to the 18S “housekeeping” gene.

Consider TNFα, for which the “reduction of eNOS expression relative to normoxic controls” value in the assay with eNOS [1] was 45%. Further, the “eNOS mRNA expression (RT-PCR)” value with eNOS mRNA (6 h stimulation, 25 or 30 cycles, relative to controls) is recorded as “drastically decreased”. In the assay on eNOS mRNA (24 h, real-time PCR), the “decrease of eNOS mRNA level” value is recorded as about 80%. In the assay with arginase 1, the “expression of arginase 1 (ARG1) relative to control cultures” value is given as “significant increase”.

As to VEGF, in assay [2], the “migration of control endothelial cells relative to media control cells” value was about 150%. Besides, the “VEGF mRNA in hypoxic cells” value in the assay on VEGF mRNA (hypoxic) was “no effect, or decreased”. For the same substance, the “decrease of VEGF mRNA expression compared to control cells” value with VEGF mRNA (normoxic) stood at 2 fold. Further, the “invasion of control endothelial cells through Matrigel toward human VEGF” value in assay [3] was “not stimulated”. For the same substance, in assay [4], the “cell survival, agent alone” value is on record as “increased survival at lower levels”. Further, the “phosphorylation of eNOS on serine 1177, maximum” value in the assay on eNOS [5] came out at 2 fold.
